Ends that are not written are not given here.
Tests used:
[1] = test system: spontaneously hypertensive rats (SHR); assay: Blood pressure in spontaneously hypertensive rats (tail-cuff); format: in vivo, rat; details: male SHR, FIG. 6D; for blockage of the hypotensive effects of IMDL: cotreatment with IMDL
Procedure: (§1) Effects of intermedin on blood pressure and heart rate in normal and hypertensive rats. Blood pressure measurements in conscious male Sprague-Dawley rats and spontaneously hypertensive rats (SHR)(7-9 weeks of age) were made in animals preadapted to the measurement procedure. Indirect systolic pressure was determined by a programmable NIBP system using the tail-cuff method (Columbus Instruments, Columbus, Ohio). Following attachment of the pressure transducer, rats were left undisturbed for 10 min before baseline measurements that spanned a 15-min interval. Following baseline measurements, rats were injected intraperitoneally with varying doses of hormones. Blood pressure and heart rate were monitored for 40 min at 20-sec intervals. Changes in blood pressure were calculated as the average of thirty measurements performed within each 10-min interval.

male Sprague-Dawley rats = assay: Blood pressure and heart rate in normal rats (tail-cuff); format: in vivo, rat; details: for blockage of the hypotensive effect of IMDL: male Sprague-Dawley rats, cotreatment with IMDL, CGRP8-37 in 20-fold excess, FIG. 6C; for systolic blood pressure / heart rate: conscious male Sprague-Dawley rats, intraperitoneal; for systolic blood pressure: monitored 40 min, FIGS. 6A, 6C; for heart rate: FIG. 6B
Procedure: as §1

[2] = molecular target: T1, SK-N-MC cells expressing endogenous CRLR (CGRP receptor) (Homo sapiens, UniProt O60894+Q16602); assay: Stimulation of cAMP production in SK-N-MC cells; format: cell-based; details: 30 min treatment, 2.5 mM IBMX, FIG. 2A
T1 construct: expressing endogenous CRLR; host or cells: SK-N-MC human neuroblastoma cells
T1 sequence (Q16602 23-461): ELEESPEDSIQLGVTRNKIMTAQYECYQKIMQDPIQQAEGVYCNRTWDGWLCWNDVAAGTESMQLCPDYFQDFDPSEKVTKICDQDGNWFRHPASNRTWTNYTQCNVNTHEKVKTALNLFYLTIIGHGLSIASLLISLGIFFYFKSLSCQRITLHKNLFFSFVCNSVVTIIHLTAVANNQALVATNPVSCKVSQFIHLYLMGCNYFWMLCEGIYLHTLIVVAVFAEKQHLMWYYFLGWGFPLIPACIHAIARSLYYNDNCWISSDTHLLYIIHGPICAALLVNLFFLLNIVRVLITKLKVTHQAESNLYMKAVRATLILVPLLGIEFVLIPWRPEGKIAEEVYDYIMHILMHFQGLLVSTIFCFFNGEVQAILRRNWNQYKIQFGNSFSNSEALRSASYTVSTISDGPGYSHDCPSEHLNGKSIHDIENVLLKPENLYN
T1 sequence (O60894 27-148 partner): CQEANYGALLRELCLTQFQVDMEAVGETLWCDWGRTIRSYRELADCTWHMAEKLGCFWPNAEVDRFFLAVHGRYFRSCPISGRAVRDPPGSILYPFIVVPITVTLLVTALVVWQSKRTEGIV
Procedure: (§2) Human neuroblastoma SK-N-MC and rat L6 skeletal myoblast cells expressing endogenous CRLR were obtained from American Type Culture Collection. To estimate adenylyl cyclase activation, SK-N-MC and L6 cells (2×10^5 viable cells/well) were plated in 24-well culture dishes in DMEM/F12 medium one day before treatment. Following 2 h incubation in serum-free DMEM/F12 medium, cells were treated with testing reagents for 30 min in medium containing 0.1% BSA and 2.5 mM 3-isobutyl-1-methylxanthine (IBMX, Sigma-Aldrich Corp.) to prevent hydrolysis of cAMP by phosphodiesterases. Following treatment, cells were lysed and cAMP content determined by a specific radioimmunoassay.

[3] = molecular target: T2, L6 skeletal myoblast cells expressing endogenous CRLR (CGRP receptor) (Rattus norvegicus, UniProt Q63118+Q9JJ74); assay: Stimulation of cAMP production in L6 cells; format: cell-based; details: for cAMP production: 30 min treatment, 2.5 mM IBMX, FIG. 2B
T2 construct: expressing endogenous CRLR; host or cells: L6 rat skeletal myoblast cells
T2 sequence (Q63118 24-464): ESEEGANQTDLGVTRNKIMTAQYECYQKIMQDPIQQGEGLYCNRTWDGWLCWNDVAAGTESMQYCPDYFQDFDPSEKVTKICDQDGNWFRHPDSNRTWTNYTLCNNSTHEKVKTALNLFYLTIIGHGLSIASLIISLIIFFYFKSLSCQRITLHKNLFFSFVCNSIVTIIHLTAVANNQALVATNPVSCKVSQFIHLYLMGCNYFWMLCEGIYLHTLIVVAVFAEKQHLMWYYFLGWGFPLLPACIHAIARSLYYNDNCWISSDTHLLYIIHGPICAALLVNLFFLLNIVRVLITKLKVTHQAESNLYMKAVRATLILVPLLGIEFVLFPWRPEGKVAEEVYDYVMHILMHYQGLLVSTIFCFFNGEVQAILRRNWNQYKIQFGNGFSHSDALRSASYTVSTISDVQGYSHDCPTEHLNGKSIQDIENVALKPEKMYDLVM
T2 sequence (Q9JJ74 27-148 partner): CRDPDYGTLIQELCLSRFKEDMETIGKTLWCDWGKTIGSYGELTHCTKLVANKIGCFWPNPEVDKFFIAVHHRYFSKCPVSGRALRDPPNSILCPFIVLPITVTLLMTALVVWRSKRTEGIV
Procedure: as §2

[4] = molecular target: T3, CGRP receptor (CRLR) on intact L6 cells (Rattus norvegicus, UniProt Q63118+Q9JJ74); assay: Receptor-binding assay, displacement of 125I-CGRP from L6 cells; details: 37C, 2 h, FIG. 2F
T3 construct: expressing endogenous CRLR; host or cells: L6 rat skeletal myoblast cells
T3 sequence (Q63118 24-464): as the sequence (Q63118 24-464) above
T3 sequence (Q9JJ74 27-148 partner): as the sequence (Q9JJ74 27-148 partner) above
Procedure: Receptor-binding assay. Ligand-binding assays were done in siliconized microfuge tubes at 37C for 2 h. […] After a 2 h incubation at 37C, the cell-associated ligand was estimated. Radioactivity was determined using a γ-counter (EG&G Wallace, Gaithersburg, Md.).

C57/BL6 male mice [5] = assay: Cumulative food intake in fasted mice; format: in vivo, mouse; details: mice fasted 20 h, intraperitoneal 100 nM/Kg, 1, 2 and 4 h after treatment, FIG. 7
Procedure: Analysis of ingestive behavior. Eight-week-old C57/BL6 male mice were housed individually in a regulated environment. Before intraperitoneal injection with testing reagents, mice were deprived of food for 20 h with free access to water. Food intake was measured by placing preweighed pellets in the cage and weighing uneaten pellets at 1, 2, and 4 h after treatment.

C57/BL6 male mice [6] = assay: Gastric emptying activity in mice; format: in vivo, mouse; details: intraperitoneal 100 nM/Kg, 90 min after hormone treatment, FIG. 8
Procedure: Effects of intermedin on gastric emptying activity. Eight-week-old C57/BL6 male mice deprived of food for 20 h were given food pellets for 90 min before intraperitoneal injection with different hormones or saline. After treatment, mice were deprived of food again and killed 90 min later. The stomach was excised at the pylorus and cardia before weighing. Gastric emptying was calculated by comparing the stomach weight of treated mice to the stomach weight of control mice killed at the time of hormone injection.

[7] = humans, administration of ADM, earlier studies; cited from earlier work
[8] = molecular target: T4, endogenous calcitonin receptor (Homo sapiens, UniProt P30988); assay: cAMP production in 293T cells via the endogenous calcitonin receptor; format: cell-based; details: FIG. 3A
T4 construct: through the endogenous calcitonin receptor; endogenous in cells; host or cells: HEK293T
T4 sequence (P30988 25-474): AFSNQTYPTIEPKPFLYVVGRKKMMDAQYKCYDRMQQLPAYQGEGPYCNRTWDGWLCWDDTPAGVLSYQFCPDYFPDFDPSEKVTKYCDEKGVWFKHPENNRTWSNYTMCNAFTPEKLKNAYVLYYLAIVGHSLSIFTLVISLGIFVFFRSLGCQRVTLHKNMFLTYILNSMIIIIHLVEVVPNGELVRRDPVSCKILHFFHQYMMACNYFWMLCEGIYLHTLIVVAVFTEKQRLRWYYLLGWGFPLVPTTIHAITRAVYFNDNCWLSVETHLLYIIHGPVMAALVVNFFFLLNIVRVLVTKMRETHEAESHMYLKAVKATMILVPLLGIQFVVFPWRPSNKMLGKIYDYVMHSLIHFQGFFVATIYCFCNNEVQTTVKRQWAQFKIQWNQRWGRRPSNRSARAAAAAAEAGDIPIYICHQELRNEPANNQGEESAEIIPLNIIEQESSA

| Substance | cAMP production [3] | systolic blood pressure (male Sprague-Dawley rats) | heart rate (male Sprague-Dawley rats) | cumulative food intake (C57/BL6 male mice [5]) | gastric emptying activity (C57/BL6 male mice [6]) | other results |
| --- | --- | --- | --- | --- | --- | --- |
| ADM22-52: low affinity ADM22-52 fragment (TVQKLAHQIYQFTDKDKDNVAPRSKISPQGY; ends and bridges not checked; UniProt P35318 116-146, looked up, fragment) |  |  |  |  |  | blockage of the hypotensive effects of IMDL [1]: minimal effect |
| CGRP8-37: N-terminally truncated CGRP, a CGRP receptor antagonist (VTHRLAGLLSRSGGVVKNNFVPTNVGSKAF; ends and bridges not checked; UniProt P06881 90-119, looked up, fragment) [reference compound] |  |  |  |  |  | blockage of the hypotensive effect of IMDL (male Sprague-Dawley rats): significantly decreased the hypotensive effects of IMDL; blockage of the hypotensive effects of IMDL [1]: abolished |
| IMD17-47: truncated amidated intermedin fragment, putative C-terminal receptor-binding domain (VQNLSHRLWQLMGPAGRQDSAPVDPSSPHSY-NH2) | no effect | no effect |  |  |  | cAMP production [2]: no effect; blockage of the stimulatory effect of intermedin on cAMP production ([3]; cotreatment with intermedin, IMD17-47 at 1 μM, FIGS. 2C, 2D): functional antagonist of intermedin action; blockage of the hypotensive effect of IMDL (male Sprague-Dawley rats): blocked the hypotensive effects of IMDL |
| IMDL: 47-amino-acid amidated mature human intermedin peptide, SEQ ID NO:5 residues 1-47 | dose-dependent increases of cAMP production | dose-dependently suppressed blood pressure | increased heart rate | decreased food intake | Reduction of gastric emptying | competitive displacement of 125I-CGRP binding [4]: displaced ^125I-CGRP binding; blood pressure ([1]; intraperitoneal): reduced blood pressure |
| IMDS: 40-amino-acid amidated mature human intermedin peptide, SEQ ID NO:5 residues 8-47 | dose-dependent increases of cAMP production | dose-dependently suppressed blood pressure | increased heart rate | decreased food intake | Reduction of gastric emptying | competitive displacement of 125I-CGRP binding [4]: displaced ^125I-CGRP binding |
| SRP/urocortin II: type II CRH receptor-selective agonist, known gastric emptying suppression peptide (IVLSLDVPIGLLQILLEQARARAAREQATTNARILARVGHC; Urocortin-2; UniProt Q96RP3 72-112, looked up) [reference compound] |  |  |  | decreased food intake | Reduction of gastric emptying |  |
| adrenomedullin [ADM, reference compound] | stimulated cAMP production | dose-dependently suppressed systolic blood pressure | Increase in heart rate | decreased food intake | suppressed the gastric emptying activity, but with a lower potency | circulating prolactin levels [7]: increases circulating prolactin levels |
| calcitonin |  |  |  |  |  | cAMP production [8]: increases cAMP dose-dependently |
| nonamidated form of intermedin: nonamidated form of the synthetic intermedin peptide | no effect |  |  |  |  |  |
| prointermedin55-85: 31-amino-acid peptide from the prepro-region of human intermedin (PRPVVWKLHRALQAQRGAGLAPVMGQPLRDG; pro-form; UniProt Q7Z4H4 55-85, looked up, fragment) | no effect | no effect |  |  |  | cAMP production [2]: no effect |
